Data published in US7939509B2, “Partial and full agonists of A1 adenosine receptors” (Gilead Sciences, Inc., priority 2002, dated 2011).
Values joined by “and” are separate entries in the source; they are usually repeats but may differ in a detail not shown here. Equal entries are not always repeated.

How the values were obtained:
[1] = cited from earlier work
awake rats [2] = experiment: Anti-lipolytic effect: serum free fatty acids (FFA) in overnight-fasted awake rats; format: in vivo, rat
Procedure: All experimental procedures were performed under a protocol approved by the Institutional Animal Care and Use Committee of CV Therapeutics, Inc., and in accordance with the recommendations set forth in the Guide for the Care and Use of Laboratory Animals published by the National Research Council. Male Sprague-Dawley rats (225-250 gm) with either one or two indwelling catheters (carotid and jugular) were purchased from Charles River Laboratories (Wilmington, Mass.). Animals were housed 1 per cage in a room maintained on a 12 h light/dark cycle (light on 06.00-18.00 h) under constant temperature (22-25° C.) and with ad libitum access to food and water. The anti-lipolytic effects of Compound A were studied in awake rats. Animals were fasted overnight before experimental use. On the day of the experiment, animals were put in metabolic cages and left undisturbed to acclimate to the environment for 1-2 hrs. An infusion set (21 G×¾″, 0.8×19 mm U.T.W., 3½″, 9 cm tubing, volume 0.15 ml) was connected to the arterial catheter for blood sampling. A 1% sodium citrate saline solution was used to flush the lines. A pre-treatment blood sample was obtained from each animal to determine baseline values for FFA and TG. Compound A was given via oral gavage, sc injection, iv injection, or iv infusion, as described, for each different series of experiments. Blood samples were collected into serum separator tubes (Becton Dickinson, Franklin Lakes, N.J.) at pre-determined times, Blood was allowed to clot, and then centrifuged at 8000 rpm for 4 min at 4° C. The serum was stored at −80° C. and was thawed at 4° C. for determinations of FFA and TG contents. […] Sodium citrate and Triton WR1339 were purchased from Sigma (St. Louis, Mo.). Nicotinic acid and PEG 400 were purchased from VWR (by EMD Chemicals). Triton WR 1339 was diluted in warm saline (˜37° C.) with frequent vortexing. […] Compound A was dissolved in PEG 400, and then diluted with distilled water to make a 20% PEG drug solution. Serum FFA and TGs were measured using commercial kits from Wako Chemicals, Richmond, Va. Glucose and Insulin were measured using commercial kits from Wako Chemicals USA (Richmond, Va.). All data are reported as mean±SEM. Statistical analysis of data from experiments with 2 treatment groups was performed using the unpaired Student's t-test. Two way analysis of variance followed by Bonferroni's test was used for multiple comparisons.

awake rats [3] = experiment: Insulin dose response to reduce FFA with and without Compound A in awake rats; format: in vivo, rat
Procedure: FIG. 6 graphically represents how Compound A potentates the effect of insulin in reducing FFA levels. Shown are the dose response curves for the effect of insulin to reduce FFA obtained in the absence and presence of Compound A (0.5 mg/kg) in awake rats. Both insulin and Compound A were given via IP injection. Each data point is the mean±SEM of the maximal (peak effect) percent decrease in FFA levels from baseline from three to five rats.
The anti-lipolytic effects of Compound A were studied in awake rats. Animals were fasted overnight before experimental use. On the day of the experiment, animals were put in metabolic cages and left undisturbed to acclimate to the environment for 1-2 hrs. An infusion set (21 G×¾″, 0.8×19 mm U.T.W., 3½″, 9 cm tubing, volume 0.15 ml) was connected to the arterial catheter for blood sampling. A 1% sodium citrate saline solution was used to flush the lines. A pre-treatment blood sample was obtained from each animal to determine baseline values for FFA and TG. Compound A was given via oral gavage, sc injection, iv injection, or iv infusion, as described, for each different series of experiments. Blood samples were collected into serum separator tubes (Becton Dickinson, Franklin Lakes, N.J.) at pre-determined times, Blood was allowed to clot, and then centrifuged at 8000 rpm for 4 min at 4° C. The serum was stored at −80° C. and was thawed at 4° C. for determinations of FFA and TG contents.
The effect of insulin (0.005-1 U/kg) to reduce serum FFA was determined in the absence and presence of a single dose (0.5 mg/kg) of Compound A (FIG. 6). Baseline FFA levels before insulin administration in vehicle and Compound A treated groups were 0.84±0.01 and 0.92±0.02 mM, respectively. […] The insulin dose response to reduce FFA levels was then repeated in the presence of Compound A (0.5 mg/kg). Compound A alone (0.5 mg/kg) caused an 18% decrease in FFA levels. The doses of insulin that cause 50% decrease (ED50) in FFA levels in the absence and presence of Compound A were 0.4 and 0.1 U/kg, respectively.

## Nc1ncnc2c1ncn2[C@@H]1O[C@H](CO)[C@@H](O)[C@H]1O [adenosine]
[1]
  half-life: less than 10 sec

## O=C(O)c1cccnc1 [nicotinic acid, reference compound]
Awake rats [2]; 10 mg/kg iv bolus
  maximal decrease in FFA levels: 57±5%
Awake rats [2]; 10 mg/kg iv bolus, from 0.85±0.09, p<0.001
  FFA level after treatment: 0.35 ± 0.01 nM
Awake rats [2]; after iv bolus
  rebound increase of FFA levels: seen

## insulin
Awake rats [3]; in the absence of Compound A
  dose of insulin that causes 50% decrease (ED50) in FFA levels: 0.4 (0.3916-0.4208, 95% Cl) U/kg and 0.4 U/kg
Awake rats [3]; in the presence of Compound A (0.5 mg/kg IP), 0.5 mg/kg
  dose of insulin that causes 50% decrease (ED50) in FFA levels: 0.1 (0.0935-0.133) U/kg and 0.1 U/kg
Awake rats [3]; insulin 0.005-1 U/kg IP, without Compound A
  lowering of FFA levels by insulin: up to 67±1%
